Test results taken from PubChem BioAssay AID1035470 (Broad Institute, 2014).
Records with an inconclusive call do not appear. Active and inactive are the calls of the source.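 The calls were made as follows: active = compound lowering the normal-ribosome reporter at least twice as much as the humanized-ribosome reporter, growth loss under a set limit; inconclusive = no clear call, values can overlap the other calls; inactive = the rest.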

Test system: E. coli WT-GFP vs G2058-humanized RFP, fluorescence, 24 h
Assay: growth inhibition of wild-type GFP E. coli versus G2058-humanized strain, dose response, G2058 mutant RFP vs wild-type GFP, cherry-pick, two tests (AID 1035470)
[1] = E. coli WT-GFP vs G2058-humanized RFP mixed culture, total growth OD600, 24 h
[2] = measured here: G2058 humanized mutant RFP growth

## CC(=O)Nc1nc(C)c(-c2csc(Nc3ccccn3)n2)s1
  AC50: > 100 µM (inactive)

## O=C(Cn1cc(COc2c(F)c(F)cc(F)c2F)nn1)c1ccc(O)cc1
  AC50: > 100 µM (inactive)
[1]
  AC50: > 100 µM

## CC1C=Cc2ccccc2N1C(=O)c1ccccc1 (stereo not given)
  AC50: > 100 µM (inactive)

## Cc1ccc(-c2nc(CN3CCCCC3c3cccc(F)c3)c(C)o2)o1 (stereo not given)
[1]
  AC50: > 100 µM

## O=C(Nc1cccc(Oc2ccc3c(c2)C(=O)NC3=O)c1)c1cccs1
  AC50: > 100 µM (inactive)

## O=C(Nc1ccc2nc(-c3cccnc3)[nH]c2c1)c1ccco1
  AC50: > 100 µM (inactive)
[2]
  AC50: > 100 µM

## COc1ccc(OC2C(=O)N(Cc3ccc4c(c3)OCO4)C2c2sccc2C)cc1 (stereo not given)
  AC50: > 100 µM (inactive)
[1]
  AC50: > 100 µM

## Cc1ccc(SCC(=O)Nc2ccc(S(=O)(=O)Nc3nccs3)cc2)cc1
  AC50: > 100 µM (inactive)
[1]
  AC50: > 100 µM

## CCc1ccc2nc(N(CCCN(C)C)C(=O)c3ccc4c(c3)OCCO4)sc2c1
  AC50: > 100 µM (inactive)
[1]
  AC50: > 100 µM

## Cc1cccc(NC(=O)c2sc3nc(-c4ccccc4)cn3c2C)n1
  AC50: > 100 µM (inactive)
[1]
  AC50: > 100 µM

## COc1ccc(CNC(=O)c2nc(S(=O)(=O)Cc3ccccc3)ncc2Cl)cc1
  AC50: > 100 µM (inactive)

## CSc1ccccc1C(=O)NCCc1ccc(S(=O)(=O)N2CCCCC2)cc1
  AC50: > 100 µM (inactive)

## CNC(=O)c1cc(C(=O)c2ccc(C(F)(F)F)cc2F)c[nH]1
  AC50: > 100 µM (inactive)
[1]
  AC50: > 100 µM

## C[C@H](CO)N1C[C@H](C)[C@H](CN(C)C(=O)Nc2ccc3c(c2)OCO3)Oc2c(NC(=O)Nc3ccccc3)cccc2C1=O
  AC50: > 100 µM (inactive)

## CCn1nc(C(=O)OCc2cccc(S(=O)(=O)N(C)C)c2)c2ccccc2c1=O
  AC50: > 100 µM (inactive)

## CCn1c(SCC(=O)Nc2ccc(OC)cc2)nc2nc3c(cc2c1=O)CCCC3
[1]
  AC50: 47.7 µM

## Cc1cccc(N2CCN(Cc3nc(-c4ccc(F)cc4F)oc3C)CC2)n1
  AC50: > 100 µM (inactive)
[1]
  AC50: > 100 µM

## O=C(CCc1ccccc1)Nc1sc2c(c1C(=O)O)CCCC2
  AC50: > 100 µM (inactive)

## O=C(Nc1cccc2ccccc12)c1ccc([N+](=O)[O-])o1
  AC50: > 100 µM (inactive)
[1]
  AC50: > 100 µM

## CC1CCCC(NC(=O)COC(=O)Cc2c[nH]c3ccccc23)C1C (stereo not given)
  AC50: > 100 µM (inactive)
[1]
  AC50: > 100 µM

## COC(=O)CC1COc2ccccc2N1C(=O)c1ccc(Br)cc1 (stereo not given)
  AC50: > 100 µM (inactive)
[1]
  AC50: > 100 µM

## O=C(CSCc1c(Cl)cccc1Cl)NCc1ccccn1
  AC50: > 100 µM (inactive)

## CCn1ncc(Br)c1C(=O)Nc1ccc2c(c1)OCCO2
  AC50: > 100 µM (inactive)

## Cc1cc(C)n2nc(C(=O)Nc3cccc(S(=O)(=O)N(C)c4ccccc4)c3)nc2n1
  AC50: > 100 µM (inactive)

## COc1ccc(-c2csc(NC(=O)c3ccccc3S(C)(=O)=O)n2)cc1
  AC50: > 100 µM (inactive)
[1]
  AC50: > 100 µM
[2]
  AC50: > 100 µM

## CN1CCN(c2nc(Nc3ccc(O)cc3)nc3ccccc23)CC1
  AC50: > 100 µM (inactive)
[1]
  AC50: > 100 µM

## O=C(CCCn1c(=S)[nH]c2ccsc2c1=O)Nc1ccc2c(c1)OCCO2
  AC50: > 100 µM (inactive)

## O=C(Nc1ccc(Cl)cc1)N1C[C@H]2[C@@H](c3ccccc31)[C@@H](CO)N2C(=O)c1ccccn1
  AC50: > 100 µM (inactive)

## Nc1ccccc1Sc1ccc(C(F)(F)F)cc1[N+](=O)[O-]
  AC50: > 100 µM (inactive)
[1]
  AC50: > 100 µM
[2]
  AC50: > 100 µM

## CCCN(CC(=O)Nc1ccccc1C)C(=O)c1cccc(S(=O)(=O)N2CCc3ccccc3C2)c1
  AC50: > 100 µM (inactive)
[1]
  AC50: > 100 µM

## Cc1nc(SCC(=O)Nc2ccc3c(c2)OCCO3)nc(C)c1C
  AC50: > 100 µM (inactive)
[1]
  AC50: 46.5 µM

## COc1ccc(-c2csc(NC(=O)c3ccoc3C)n2)cc1
[1]
  AC50: > 100 µM

## COc1cc(NC(=O)COC(=O)CC(C)(C)C)c(C)cc1[N+](=O)[O-]
  AC50: > 100 µM (inactive)
[1]
  AC50: > 100 µM

## COc1ccc(CC(=O)NC(C)c2ccc3ccccc3c2)cc1 (stereo not given)
[2]
  AC50: 5.4 µM

## COc1ccc(CNc2cc([N+](=O)[O-])ccc2OC)cc1
  AC50: > 100 µM (inactive)
[1]
  AC50: > 100 µM
[2]
  AC50: > 100 µM

## CC1(C(=O)NS(=O)(=O)c2cccc(Cl)c2)CCN1C(=O)C1(c2ccc(Cl)cc2)CCC1 (stereo not given)
  AC50: > 100 µM (inactive)

## Cn1nc(C(C)(C)C)c([N+](=O)[O-])c1C(=O)Nc1ccc(Br)cc1
  AC50: > 100 µM (inactive)

## CCC(C(=O)NC1CCCC1)n1c(-c2ccnc3ccccc23)nc2ccccc21 (stereo not given)
[1]
  AC50: > 100 µM

## CCN(CC)CCN(C(=O)c1ccc2c(c1)OCCO2)c1nc2c(Cl)cccc2s1
  AC50: > 100 µM (inactive)

## O=C(Nc1ccc(Br)cc1)c1cccnc1N1CCCCC1
  AC50: > 100 µM (inactive)
[1]
  AC50: > 100 µM

## CC(=O)OC(COc1cccc(C)c1)Cn1cnc2ccccc21 (stereo not given)
  AC50: > 100 µM (inactive)
[1]
  AC50: > 100 µM

## O=C(O)c1ccc(Oc2ccc([N+](=O)[O-])cc2)c([N+](=O)[O-])c1
  AC50: > 100 µM (inactive)
